Results taken from patent US11365192B2, “Pyridine compound substituted with azole” (TAISHO PHARMACEUTICAL CO., LTD., priority 2017, dated 2022).

How the values were obtained:
human CYP4F2 = human CYP4F2 (Homo sapiens (Human), UniProt P78329); assay: Inhibition test against 20-HETE producing enzyme CYP4F2 (luciferine derivative, luminescence); format: biochemical
Procedure: (§1) (1) Inhibition Test for Each Compound of the Present Invention Against 20-HETE Producing Enzymes (CYP4F2 and CYP4A11)
(§2) In the CYP4F2 inhibition test, the reaction solution containing each compound [final concentration of 50 mM, KPO4 (pH 7.4), 2.5 μM luciferine derivative, and 1 mM NADPH] was added to an Escherichia coli membrane fraction (100 μg/mL protein) in which human CYP4F2 had been expressed. In the CYP4A11 inhibition test, the reaction solution containing each compound [final concentration of 100 mM, Tris-HCl (pH 7.5), 60 μM luciferine derivative, 1.3 mM NADP^+, 3.3 mM Glucose 6-Phosphate, 3.3 mM MgCl2, and 0.4 U/mL Glucose 6-Phosphate dehydrogenase] was added to an Escherichia coli membrane fraction (100 μg/mL protein) in which human CYP4A11 had been expressed. Following this, the membrane fraction was left to stand at room temperature for 60 minutes to perform an enzymatic reaction. After the reaction, a luciferine detection reagent was added, and the luminescence value was measured using a plate reader. By using that value, the percent inhibition of 20-HETE producing enzyme (%) was calculated according to the equation described below, and the 50% inhibitory concentration (IC50 value) for each compound was calculated. Percent inhibition of 20-HETE producing enzyme (%)=[1−(A−B)/(C−B)]*100
(§3) A: Luminescence value with addition of compound
(§4) B: Luminescence value without addition of compound and enzyme

human CYP4A11 = human CYP4A11 (Homo sapiens (Human), UniProt Q02928); assay: Inhibition test against 20-HETE producing enzyme CYP4A11 (luciferine derivative, luminescence); format: biochemical
Procedure: as §1, §2, §3, §4

[1] = E. coli membrane fraction expressing human CYP4F2, 2.5 μM luciferine derivative, room temperature 60 minutes
[2] = E. coli membrane fraction expressing human CYP4A11, 60 μM luciferine derivative, room temperature 60 minutes
[3] = human CYP4F2, luciferine derivative, luminescence
[4] = human CYP4A11, luciferine derivative, luminescence

Sequence of human CYP4A11 (Q02928 5-519): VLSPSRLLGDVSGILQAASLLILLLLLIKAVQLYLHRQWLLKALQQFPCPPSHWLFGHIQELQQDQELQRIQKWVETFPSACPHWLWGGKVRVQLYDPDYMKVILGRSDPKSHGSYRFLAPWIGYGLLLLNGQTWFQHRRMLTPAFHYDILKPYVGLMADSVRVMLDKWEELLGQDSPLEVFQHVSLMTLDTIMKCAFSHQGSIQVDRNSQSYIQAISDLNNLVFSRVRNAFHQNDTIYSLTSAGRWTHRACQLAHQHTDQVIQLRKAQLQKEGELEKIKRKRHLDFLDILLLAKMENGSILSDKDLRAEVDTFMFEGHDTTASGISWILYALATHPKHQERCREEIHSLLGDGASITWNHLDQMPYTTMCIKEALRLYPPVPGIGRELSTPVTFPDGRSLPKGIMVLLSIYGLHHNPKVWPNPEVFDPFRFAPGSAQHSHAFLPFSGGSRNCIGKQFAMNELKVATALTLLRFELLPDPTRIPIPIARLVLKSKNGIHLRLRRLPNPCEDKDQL
Sequence of human CYP4F2 (P78329 5-520): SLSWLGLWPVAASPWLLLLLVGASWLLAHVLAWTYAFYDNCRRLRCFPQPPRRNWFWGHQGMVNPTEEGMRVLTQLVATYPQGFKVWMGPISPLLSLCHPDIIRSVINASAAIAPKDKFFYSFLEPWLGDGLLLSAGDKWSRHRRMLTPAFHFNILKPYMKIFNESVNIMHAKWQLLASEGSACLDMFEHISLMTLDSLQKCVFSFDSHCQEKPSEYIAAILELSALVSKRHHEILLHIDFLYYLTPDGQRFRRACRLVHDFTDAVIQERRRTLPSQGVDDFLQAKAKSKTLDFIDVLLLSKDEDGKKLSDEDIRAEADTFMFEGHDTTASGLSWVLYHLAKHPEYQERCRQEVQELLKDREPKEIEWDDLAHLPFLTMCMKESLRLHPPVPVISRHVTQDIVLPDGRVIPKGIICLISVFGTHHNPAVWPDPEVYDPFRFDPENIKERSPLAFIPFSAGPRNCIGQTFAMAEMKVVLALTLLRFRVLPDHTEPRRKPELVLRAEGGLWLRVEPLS

Compound | IC50 (human CYP4F2; [1]) [nM] | IC50 (human CYP4A11; [2]) [nM] | IC50 (human CYP4F2; [3]) [nM] | IC50 (human CYP4A11; [4]) [nM]
O=C(O)CC[C@H]1CCC[C@@H](COc2ccc(-c3ccn[nH]3)nc2)C1 (racemic) [Example 2-6, cis-3-[3-[[6-(1H-Pyrazol-5-yl)-3-pyridinyl]oxymethyl]cyclohexyl]propanoic Acid (Racemate)] | 1300 | 25 |  | 
O=C(O)[C@H]1CCC[C@H](COc2ccc(-c3ccn[nH]3)nc2)C1 (racemic) [Example 9-1, trans-3-[[6-(1H-Pyrazol-5-yl)-3-pyridinyl]oxymethyl]-1-cyclohexanecarboxylic Acid (Racemate)] | 1900 | 51 |  | 
O=C(O)C1CC1c1cccc(COc2ccc(-c3ccn[nH]3)nc2)c1 (single isomer, unassigned) [Example 26-1, trans-2-[3-[[6-(1H-Pyrazol-5-yl)-3-pyridinyl]oxymethyl]phenyl]-1-cyclopropanecarboxylic Acid] | 400 | 20 |  | 
O=C(O)C1CC1c1ccc(CCOc2ccc(-c3ccn[nH]3)nc2)c(F)c1 (single isomer, unassigned) [Example 71-17] |  |  | 520 | 250
O=C(O)C1CC1c1cccc(COc2ccc(-c3ccn[nH]3)nc2)c1F (single isomer, unassigned) [Example 71-45, 2-[2-Fluoro-3-[[6-(1H-pyrazol-5-yl)pyridin-3-yl]oxymethyl]phenyl]cyclopropane-1-carboxylic Acid] |  |  | 210 | 15
O=C(O)C1CC1c1ccc(F)c(CCOc2ccc(-c3ccn[nH]3)nc2)c1 (single isomer, unassigned) [Example 74-7] |  |  | 1300 | 78
O=C(O)C1CC1c1ccc(F)c(CCOc2ccc(-c3ccn[nH]3)nc2)c1 (single isomer, unassigned) [Example 74-8] |  |  | 410 | 77
O=C(O)C1CC1c1cc(F)cc(CCOc2ccc(-c3ccn[nH]3)nc2)c1 (single isomer, unassigned) [Example 74-10] |  |  | 2600 | 56
O=C(O)C1CC1c1cc(F)cc(CCOc2ccc(-c3ccn[nH]3)nc2)c1 (single isomer, unassigned) [Example 74-11] |  |  | 1200 | 78
O=C(O)C1CCc2ccc(COc3ccc(-c4[nH]ncc4Cl)nc3)cc2O1 (single isomer, unassigned) [Example 75-7] |  |  | 20 | 7.7
O=C(O)C1CCc2ccc(COc3ccc(-c4[nH]ncc4Cl)nc3)cc2O1 (single isomer, unassigned) [Example 75-8] |  |  | 67 | 67
O=C(O)c1ccc(COc2ccc(-c3ccn[nH]3)nc2)cc1 [Example 1-1, 4-[[6-(1H-Pyrazol-5-yl)-3-pyridinyl]oxymethyl]benzoic Acid] | 15000 | 37 |  | 
CC(Oc1ccc(-c2ccn[nH]2)nc1)c1ccc(C(=O)O)cc1 (centres unmarked) [Example 1-2] | 42000 | 250 |  | 
O=C(O)CCc1ccc(COc2ccc(-c3ccn[nH]3)nc2)cc1 [Example 1-3] | 220 | 79 |  | 
O=C(O)CCc1ccccc1COc1ccc(-c2ccn[nH]2)nc1 [Example 1-4] | 16000 | 110 |  | 
O=C(O)c1ccc(CCOc2ccc(-c3ccn[nH]3)nc2)cc1 [Example 1-5] | 3500 | 150 |  | 
O=C(O)c1cccc(CCOc2ccc(-c3ccn[nH]3)nc2)c1 [Example 1-6] | 2300 | 340 |  | 
O=C(O)c1ccccc1CCOc1ccc(-c2ccn[nH]2)nc1 [Example 1-7] | 11000 | 2400 |  | 
O=C(O)c1ccc(CCCOc2ccc(-c3ccn[nH]3)nc2)cc1 [Example 1-8] | 2600 | 78 |  | 
O=C(O)c1cccc(CCCOc2ccc(-c3ccn[nH]3)nc2)c1 [Example 1-9] | 480 | 79 |  | 
O=C(O)c1ccccc1CCCOc1ccc(-c2ccn[nH]2)nc1 [Example 1-10] | 27000 | 4200 |  | 
O=C(O)CCCc1ccccc1COc1ccc(-c2ccn[nH]2)nc1 [Example 1-11] | 43000 | 24 |  | 
O=C(O)CCCCc1ccccc1COc1ccc(-c2ccn[nH]2)nc1 [Example 1-12] | > 50000 | 170 |  | 
O=C(O)Cc1ccc(CCOc2ccc(-c3ccn[nH]3)nc2)cc1 [Example 1-13] | 2700 | 31 |  | 
O=C(O)Cc1cccc(CCOc2ccc(-c3ccn[nH]3)nc2)c1 [Example 1-14] | 7800 | 21 |  | 
O=C(O)CCc1ccc(CCOc2ccc(-c3ccn[nH]3)nc2)cc1 [Example 1-15] | 670 | 210 |  | 
O=C(O)CCc1cccc(CCOc2ccc(-c3ccn[nH]3)nc2)c1 [Example 1-16] | 1100 | 36 |  | 
O=C(O)CCc1ccccc1CCCOc1ccc(-c2ccn[nH]2)nc1 [Example 1-17] | 5100 | 16 |  | 

Compound | IC50 (human CYP4F2; [1]) [nM] | IC50 (human CYP4A11; [2]) [nM] | IC50 (human CYP4F2; [3]) [nM] | IC50 (human CYP4A11; [4]) [nM]
O=C(O)c1ccc(CCCCOc2ccc(-c3ccn[nH]3)nc2)cc1 [Example 1-18] | 330 | 14 |  | 
O=C(O)c1cccc(CCCCOc2ccc(-c3ccn[nH]3)nc2)c1 [Example 1-19] | 220 | 9.5 |  | 
O=C(O)C12CCC(COc3ccc(-c4[nH]ncc4Cl)nc3)(CC1)CC2 [Example 1-20] | 9200 | 16 |  | 
O=C(O)C12CCC(COc3cnc(-c4ccn[nH]4)c(F)c3)(CC1)CC2 [Example 1-21] | 31000 | 29 |  | 
Cc1cc(OCC23CCC(C(=O)O)(CC2)CC3)cnc1-c1ccn[nH]1 [Example 1-22] | > 50000 | 38 |  | 
O=C(O)CCC(=O)N1CCC[C@H](COc2ccc(-c3ccn[nH]3)nc2)C1 [Example 1-23] | 20000 | 320 |  | 
O=C(O)CCC(=O)N1CCC[C@@H](COc2ccc(-c3ccn[nH]3)nc2)C1 [Example 1-24] | 15000 | 170 |  | 
O=C(O)Cn1cc(-c2cccc(COc3ccc(-c4ccn[nH]4)nc3)c2)ccc1=O [Example 1-25] | 1600 | 120 |  | 
O=C(O)C1CC(CCOc2ccc(-c3ccn[nH]3)nc2)C1 (centres unmarked) [Example 1-26] | 14000 | 43 |  | 
O=C(O)C1CC1CCCOc1ccc(-c2ccn[nH]2)nc1 (centres unmarked) [Example 1-27] | 41000 | 38 |  | 
O=C(O)C1CC1CCCOc1ccc(-c2ccn[nH]2)nc1 (centres unmarked) [Example 1-28] | 19000 | 74 |  | 
O=C(O)C1CCCC(CCCOc2ccc(-c3ccn[nH]3)nc2)C1 (centres unmarked) [Example 1-29] | 360 | 30 |  | 
O=C(O)C12CCC(CCCOc3ccc(-c4ccn[nH]4)nc3)(CC1)CC2 [Example 1-30] | 4100 | 34 |  | 
CC(C)(CC(=O)N1CCC(CCCOc2ccc(-c3ccn[nH]3)nc2)CC1)C(=O)O [Example 1-31] | 160 | 1700 |  | 
CC(C)(CC(=O)N1CCCC(CCCOc2ccc(-c3ccn[nH]3)nc2)C1)C(=O)O (centres unmarked) [Example 1-32] | 3800 | 9300 |  | 
O=C(O)C1(CCCCOc2ccc(-c3ccn[nH]3)nc2)CCC1 [Example 1-33] | 15000 | 74 |  | 
O=C(O)C1(CCCCOc2ccc(-c3ccn[nH]3)nc2)CCCC1 [Example 1-34] | 1800 | 38 |  | 
O=C(O)C1(CCCCOc2ccc(-c3ccn[nH]3)nc2)CCCCC1 [Example 1-35] | 2200 | 84 |  | 
CC(C)(Oc1cccc(CCCCOc2ccc(-c3ccn[nH]3)nc2)c1)C(=O)O [Example 1-36] | 1300 | 110 |  | 
O=C(O)c1cccc(S(=O)(=O)N2CCC[C@@H](COc3ccc(-c4ccn[nH]4)nc3)C2)c1 [Example 1-37] | 94 | 21 |  | 
CC(C)(CCc1cc(COc2ccc(-c3ccn[nH]3)nc2)ccn1)C(=O)O [Example 1-38] | 1200 | 42 |  | 
CC(C)(CCc1cccc(COc2ccc(-c3ccn[nH]3)nc2)n1)C(=O)O [Example 1-39] | 9800 | 420 |  | 
O=C(O)c1cc(COc2ccc(-c3ccn[nH]3)nc2)ccn1 [Example 1-40, 4-[[6-(1H-Pyrazol-5-yl)-3-pyridinyl]oxymethyl]-2-pyridinecarboxylic Acid] | 15000 | 580 |  | 
O=C(O)c1cc(COc2ccc(-c3n[nH]cc3Cl)nc2)ccn1 [Example 1-41, 4-[[6-(4-Chloro-1H-pyrazol-3-yl)-3-pyridinyl]oxymethyl]-2-pyridinecarboxylic Acid] | 3700 | 97 |  | 
O=C(O)C1CCC(COc2ccc(-c3ccn[nH]3)nc2)CC1 (centres unmarked) [Example 1-42] | 25000 | 52 |  | 
CC(C)(CCCCCOc1ccc(-c2ccn[nH]2)nc1)C(=O)O [Example 1-43, 2,2-Dimethyl-7-[[6-(1H-pyrazol-5-yl)-3-pyridinyl]oxy]heptanoic Acid] | 18000 | 46 |  | 
O=C(O)C1(CCCCCCOc2ccc(-c3ccn[nH]3)nc2)CCCCC1 [Example 1-44] | 510 | 110 |  | 
